Measurements published in US8604190B2, “Hetero isonipecotic modulators of vanilloid VR1 receptor” (Janssen Pharmaceutica NV, priority 2004, dated 2013).

Molecular target: T1, human VR1 (Homo sapiens, UniProt Q8NER1)
T1 construct: expressed in transfected cells; host or cells: A431 cells
Assay: Human VR1 functional assay (FLIPR, intracellular Ca++)
Assay type: cell-based
Conditions: A431 cells expressing human VR1, Ca++-sensitive dye, dose-response
Procedure: The compounds of the invention were tested using a high throughput VR-1 FLIPR assay.
Human VR1 Functional Assay
The functional activity of the test compounds was determined by measuring changes in intracellular calcium concentration using a Ca^++-sensitive fluorescent dye and FLIPR™ technology. Increases in Ca^++ concentration were readily detected upon challenge with resiniferatoxin (RTX). A431 cells expressing human VR1 were seeded on polystyrene 384-well back walled clear bottom assay plates coated with collagen and incubated for 3-4 hours at 37° C. with 5% CO2 in DMEM. Plates were loaded with […] of 2× Dye Solution, incubated for 1-1.5 hours and subsequently tested for agonist-induced increases in intracellular Ca^2+ levels using FLIPR™ technology. Cells were challenged with test compounds (at varying concentrations) and intracellular Ca^++ was measured prior to the addition of resiniferatoxin to all wells to elicit ˜80% maximal response. EC50 or IC50 values were determined from dose-response studies.

T1 sequence (Q8NER1 whole entry): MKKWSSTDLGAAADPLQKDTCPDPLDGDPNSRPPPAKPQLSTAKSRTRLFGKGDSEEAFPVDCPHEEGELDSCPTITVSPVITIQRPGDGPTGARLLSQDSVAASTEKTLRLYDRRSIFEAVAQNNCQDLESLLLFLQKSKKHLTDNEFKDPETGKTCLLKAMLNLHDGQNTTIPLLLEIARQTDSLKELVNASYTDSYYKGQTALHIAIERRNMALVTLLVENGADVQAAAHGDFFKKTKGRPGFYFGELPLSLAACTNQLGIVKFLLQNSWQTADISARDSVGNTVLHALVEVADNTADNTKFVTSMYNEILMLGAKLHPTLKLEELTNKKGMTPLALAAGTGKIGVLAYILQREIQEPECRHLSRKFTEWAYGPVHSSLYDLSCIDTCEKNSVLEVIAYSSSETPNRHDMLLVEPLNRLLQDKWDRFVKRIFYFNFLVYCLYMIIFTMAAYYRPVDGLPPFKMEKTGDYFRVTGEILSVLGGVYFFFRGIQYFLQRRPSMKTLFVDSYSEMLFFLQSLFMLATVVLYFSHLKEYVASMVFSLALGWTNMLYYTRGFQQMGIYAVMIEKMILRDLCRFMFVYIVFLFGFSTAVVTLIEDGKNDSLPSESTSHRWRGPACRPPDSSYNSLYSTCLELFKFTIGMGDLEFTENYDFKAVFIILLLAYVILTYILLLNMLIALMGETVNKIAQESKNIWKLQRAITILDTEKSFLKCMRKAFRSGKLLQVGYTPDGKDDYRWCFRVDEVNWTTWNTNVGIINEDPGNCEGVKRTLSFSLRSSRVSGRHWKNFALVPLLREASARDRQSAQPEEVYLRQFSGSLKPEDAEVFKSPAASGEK

SMILES | EC50 [nM]
Cc1ccccc1N1CCC(C(=O)N2CCSCC2)CC1 [Compound 1, (1-o-Tolyl-piperidin-4-yl)-thiomorpholin-4-yl-methanone] | 230
Cc1cccc(N2CCC(C(=O)N3CCC(O)CC3)CC2)c1C [Compound 2, [1-(2,3-Dimethyl-phenyl)-piperidin-4-yl]-(4-hydroxy-piperidin-1-yl)-methanone] | 240
O=C(C1CCN(c2cccc(-c3ccccc3)c2)CC1)N1CCOCC1 [Compound 3, (1-Biphenyl-3-yl-piperidin-4-yl)-morpholin-4-yl-methanone] | 270
Cc1ccc(N2CCC(C(=O)N3CCSCC3)CC2)cc1F [Compound 4, [1-(3-Fluoro-4-methyl-phenyl)-piperidin-4-yl]-thiomorpholin-4-yl-methanone] | 270
O=C(C1CCN(c2cccc(C(F)(F)F)c2)CC1)N1CCOCC1 [Compound 5, [1-(3-Trifluoromethyl-phenyl)-piperidin-4-yl]-morpholin-4-yl-methanone] | 330
Cc1ccc(N2CCC(C(=O)N3CCSCC3)CC2)cc1C [Compound 6, [1-(3,4-Dimethyl-phenyl)-piperidin-4-yl]-thiomorpholin-4-yl-methanone] | 340
Cc1cccc(N2CCC(C(=O)N3CCSCC3)CC2)c1C [Compound 7] | 760
Cc1ccc(N2CCC(C(=O)N3CCC(O)CC3)CC2)cc1C [Compound 8] | 910
Cc1ccc(N2CCC(C(=O)N3CCCCC3)CC2)cc1C [Compound 9] | 1040
Cc1ccc(N2CCC(C(=O)N3CCCCC3)CC2)cc1F [Compound 10] | 1300
Cc1ccccc1N1CCC(C(=O)N2CCC(O)CC2)CC1 [Compound 11] | 1420
Cc1ccc(N2CCC(C(=O)N3CCOCC3)CC2)cc1C [Compound 12] | 1500
Cc1ccccc1N1CCC(C(=O)N2CCOCC2)CC1 [Compound 13] | 1590
Cc1cccc(N2CCC(C(=O)N3CCCCC3)CC2)c1C [Compound 14] | 1640
O=C(C1CCN(c2cc(F)cc(F)c2)CC1)N1CCOCC1 [Compound 15] | 1850
Cc1cccc(N2CCC(C(=O)N3CCSC3)CC2)c1C [Compound 16] | 1890
O=C(C1CCN(c2cccc3ccccc23)CC1)N1CCCCC1 [Compound 17] | 1910
O=C(C1CCN(c2cc(F)cc(F)c2)CC1)N1CCSCC1 [Compound 18] | 1970
Cc1ccc(N2CCC(C(=O)N3CCOCC3)CC2)cc1F [Compound 19] | 2000

SMILES | EC50 [nM]
O=C(C1CCN(c2cc(F)cc(F)c2)CC1)N1CCCCC1 [Compound 20] | 2050
O=C(C1CCN(c2cccc(-c3ccccc3)c2)CC1)N1CCSCC1 [Compound 21] | 2200
Cc1ccc(N2CCC(C(=O)N3CCC(O)CC3)CC2)cc1F [Compound 22] | 2300
O=C(C1CCN(c2cc(F)cc(F)c2)CC1)N1CCC(O)CC1 [Compound 23] | 2800
O=C(C1CCN(c2cccc3ccccc23)CC1)N1CCSC1 [Compound 24] | 3100
Cc1ccccc1N1CCC(C(=O)N2CCCCCC2)CC1 [Compound 25] | 3200
Cc1ccccc1N1CCC(C(=O)N2CCCCC2)CC1 [Compound 26] | 3260
COc1cccc(N2CCC(C(=O)N3CCOCC3)CC2)c1 [Compound 27] | 3530
O=C(C1CCN(c2cccc(C(F)(F)F)c2)CC1)N1CCCCC1 [Compound 28] | 3700
Cc1cccc(N2CCC(C(=O)N3CCCCC3)CC2)c1 [Compound 29] | 3800
CC(=O)N1CCN(C(=O)C2CCN(c3cccc(-c4ccccc4)c3)CC2)CC1 [Compound 30] | 3800
CC(=O)N1CCN(C(=O)C2CCN(c3cccc(C)c3C)CC2)CC1 [Compound 31] | 4000
Cc1cccc(N2CCC(C(=O)N3CCOCC3)CC2)c1 [Compound 32] | 4100
O=C(C1CCN(c2cccc(-c3ccccc3)c2)CC1)N1CCCCC1 [Compound 33] | 4100
COc1cccc(N2CCC(C(=O)N3CCSCC3)CC2)c1 [Compound 34] | 4370
Cc1cccc(N2CCC(C(=O)N3C(C)CCCC3C)CC2)c1C (centres unmarked) [Compound 35] | 4600
Cc1cccc(N2CCC(C(=O)N3CCC(O)C3)CC2)c1C (centres unmarked) [Compound 36] | 5200
Cc1ccccc1N1CCC(C(=O)N2CCSC2)CC1 [Compound 37] | 5400
Cc1ccccc1N1CCC(C(=O)N2CCCC2)CC1 [Compound 38] | 7840
